Reference: ChEMBL document CHEMBL1955831, “Inhibitors of human histone deacetylase with potent activity against the African trypanosome Trypanosoma brucei” (Bioorg Med Chem Lett, 2012)
Each block holds one molecule with its values, some of them ahead of it. Calls of active or inactive are those of the source. The calls are words filed in the database; no cut-off is given here.

How the values were obtained:
[1] = target: Histone deacetylase 9 (Homo sapiens) (UniProt Q9UKV0); experiment: Inhibition of human recombinant HDAC9 expressed using baculovirus expression system using Flour- De-Lys as substrate after 3 hrs by fluorescence analysis
Sequence of Histone deacetylase 9 (Homo sapiens) (Q9UKV0 whole entry): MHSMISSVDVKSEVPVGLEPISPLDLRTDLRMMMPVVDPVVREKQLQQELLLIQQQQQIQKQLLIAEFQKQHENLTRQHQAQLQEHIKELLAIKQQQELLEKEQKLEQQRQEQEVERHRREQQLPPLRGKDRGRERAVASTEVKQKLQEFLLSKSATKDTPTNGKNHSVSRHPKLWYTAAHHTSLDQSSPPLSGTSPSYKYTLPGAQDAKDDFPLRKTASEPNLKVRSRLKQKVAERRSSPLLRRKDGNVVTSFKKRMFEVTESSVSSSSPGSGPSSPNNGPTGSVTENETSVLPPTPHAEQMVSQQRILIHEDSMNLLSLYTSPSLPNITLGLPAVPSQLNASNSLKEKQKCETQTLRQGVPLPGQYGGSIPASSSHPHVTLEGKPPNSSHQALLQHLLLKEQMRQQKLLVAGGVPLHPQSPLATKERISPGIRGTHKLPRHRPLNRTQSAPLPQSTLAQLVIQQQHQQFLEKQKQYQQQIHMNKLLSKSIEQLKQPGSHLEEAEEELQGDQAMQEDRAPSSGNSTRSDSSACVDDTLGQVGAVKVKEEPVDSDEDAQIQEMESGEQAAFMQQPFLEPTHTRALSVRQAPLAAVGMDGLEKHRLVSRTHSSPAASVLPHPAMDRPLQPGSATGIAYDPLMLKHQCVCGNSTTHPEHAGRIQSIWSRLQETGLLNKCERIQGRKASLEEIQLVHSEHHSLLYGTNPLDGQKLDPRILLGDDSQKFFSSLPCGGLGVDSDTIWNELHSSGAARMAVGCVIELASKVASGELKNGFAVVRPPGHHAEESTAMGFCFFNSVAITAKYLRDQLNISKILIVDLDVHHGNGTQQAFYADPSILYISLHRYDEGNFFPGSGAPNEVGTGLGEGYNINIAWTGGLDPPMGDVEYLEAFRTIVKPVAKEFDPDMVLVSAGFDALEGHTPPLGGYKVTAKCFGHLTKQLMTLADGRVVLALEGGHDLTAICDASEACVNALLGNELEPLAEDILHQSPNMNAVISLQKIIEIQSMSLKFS

[2] = target: Histone deacetylase 4 (Homo sapiens) (UniProt P56524); experiment: Inhibition of human recombinant HDAC4 expressed using baculovirus expression system using Flour- De-Lys as substrate after 3 hrs by fluorescence analysis
Sequence of Histone deacetylase 4 (Homo sapiens) (P56524 whole entry): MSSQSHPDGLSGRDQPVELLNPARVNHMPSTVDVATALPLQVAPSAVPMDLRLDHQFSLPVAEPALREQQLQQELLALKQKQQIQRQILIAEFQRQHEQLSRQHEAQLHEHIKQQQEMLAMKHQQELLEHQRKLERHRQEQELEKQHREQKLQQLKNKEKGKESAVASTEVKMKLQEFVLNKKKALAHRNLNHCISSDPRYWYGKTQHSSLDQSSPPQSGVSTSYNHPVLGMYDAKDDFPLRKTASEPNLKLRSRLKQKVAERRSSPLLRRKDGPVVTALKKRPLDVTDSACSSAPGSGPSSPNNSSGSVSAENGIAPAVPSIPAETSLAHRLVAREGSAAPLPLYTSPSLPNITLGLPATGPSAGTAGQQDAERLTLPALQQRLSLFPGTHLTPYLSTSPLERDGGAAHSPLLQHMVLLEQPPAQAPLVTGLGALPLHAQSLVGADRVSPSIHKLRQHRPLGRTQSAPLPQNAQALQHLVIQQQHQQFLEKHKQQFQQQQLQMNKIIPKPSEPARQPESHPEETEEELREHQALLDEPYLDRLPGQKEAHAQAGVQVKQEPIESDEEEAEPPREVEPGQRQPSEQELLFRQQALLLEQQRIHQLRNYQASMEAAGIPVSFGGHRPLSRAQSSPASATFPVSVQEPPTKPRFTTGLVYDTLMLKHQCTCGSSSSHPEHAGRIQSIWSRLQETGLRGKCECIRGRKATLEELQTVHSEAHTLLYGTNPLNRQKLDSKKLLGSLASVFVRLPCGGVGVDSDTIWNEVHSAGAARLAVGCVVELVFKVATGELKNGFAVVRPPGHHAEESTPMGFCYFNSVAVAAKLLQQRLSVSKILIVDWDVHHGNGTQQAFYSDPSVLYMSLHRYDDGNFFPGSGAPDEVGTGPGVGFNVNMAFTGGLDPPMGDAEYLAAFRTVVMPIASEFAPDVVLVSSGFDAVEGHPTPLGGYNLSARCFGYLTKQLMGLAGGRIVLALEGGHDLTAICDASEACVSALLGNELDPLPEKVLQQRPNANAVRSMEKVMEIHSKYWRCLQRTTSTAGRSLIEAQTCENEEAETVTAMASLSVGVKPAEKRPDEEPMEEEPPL

[3] = target: T1, Histone deacetylase 8 (Homo sapiens) (UniProt Q9BY41); experiment: Inhibition of human recombinant HDAC8 expressed using baculovirus expression system using Flour- De-Lys as substrate after 3 hrs by fluorescence analysis
T1 sequence (whole entry): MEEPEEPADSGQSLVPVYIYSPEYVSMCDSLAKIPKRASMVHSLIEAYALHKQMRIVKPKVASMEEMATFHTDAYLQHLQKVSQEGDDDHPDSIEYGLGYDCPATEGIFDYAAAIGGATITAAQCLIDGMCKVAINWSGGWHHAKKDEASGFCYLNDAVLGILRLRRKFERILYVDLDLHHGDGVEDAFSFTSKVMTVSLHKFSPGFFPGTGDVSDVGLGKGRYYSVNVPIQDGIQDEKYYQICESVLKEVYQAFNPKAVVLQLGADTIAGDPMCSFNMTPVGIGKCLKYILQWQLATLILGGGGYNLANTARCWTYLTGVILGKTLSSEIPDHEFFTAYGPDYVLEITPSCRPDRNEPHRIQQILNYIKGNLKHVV

[4] = target: Histone deacetylase 2 (Homo sapiens) (UniProt Q92769); experiment: Inhibition of human recombinant HDAC2 expressed using baculovirus expression system using Flour- De-Lys as substrate after 3 hrs by fluorescence analysis
Sequence of Histone deacetylase 2 (Homo sapiens) (Q92769 whole entry): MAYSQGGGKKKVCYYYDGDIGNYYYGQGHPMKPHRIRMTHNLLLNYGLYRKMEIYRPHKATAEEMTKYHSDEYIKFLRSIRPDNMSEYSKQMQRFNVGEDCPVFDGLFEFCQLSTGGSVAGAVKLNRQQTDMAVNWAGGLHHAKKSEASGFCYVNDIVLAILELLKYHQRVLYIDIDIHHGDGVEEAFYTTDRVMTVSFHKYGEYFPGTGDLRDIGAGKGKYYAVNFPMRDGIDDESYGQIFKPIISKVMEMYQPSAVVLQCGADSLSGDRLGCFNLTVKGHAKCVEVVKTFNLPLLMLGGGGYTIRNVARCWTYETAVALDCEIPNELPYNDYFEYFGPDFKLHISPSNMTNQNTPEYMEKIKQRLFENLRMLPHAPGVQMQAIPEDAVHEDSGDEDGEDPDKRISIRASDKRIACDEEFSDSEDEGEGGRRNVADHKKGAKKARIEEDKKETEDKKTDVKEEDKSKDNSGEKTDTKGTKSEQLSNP

[5] = target: Histone deacetylase 3 (Homo sapiens) (UniProt O15379); experiment: Inhibition of human recombinant HDAC3 expressed using baculovirus expression system using Flour- De-Lys as substrate after 3 hrs by fluorescence analysis
Sequence of Histone deacetylase 3 (Homo sapiens) (O15379 whole entry): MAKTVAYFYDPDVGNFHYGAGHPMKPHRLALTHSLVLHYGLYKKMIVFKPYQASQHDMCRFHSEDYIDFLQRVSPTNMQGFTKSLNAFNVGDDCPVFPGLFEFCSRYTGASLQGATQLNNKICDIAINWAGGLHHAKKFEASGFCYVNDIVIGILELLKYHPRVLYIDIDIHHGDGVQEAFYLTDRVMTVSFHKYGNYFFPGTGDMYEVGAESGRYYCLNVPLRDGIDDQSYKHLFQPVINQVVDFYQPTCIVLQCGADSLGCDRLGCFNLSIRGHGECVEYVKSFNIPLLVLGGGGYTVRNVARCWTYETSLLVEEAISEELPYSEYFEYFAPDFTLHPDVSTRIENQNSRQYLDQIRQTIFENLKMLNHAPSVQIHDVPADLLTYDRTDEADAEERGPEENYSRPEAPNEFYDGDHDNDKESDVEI

Trypanosoma brucei = experiment: Antitrypanosomal activity against bloodstream Trypanosoma brucei 427 assessed as cell death at 2 ug/ml within 4 hrs by Giemsa staining-based DMRB microscopic analysis

SMILES: O=C(/C=C/c1cccc(S(=O)(=O)Nc2cccc(F)c2)c1)NO
ED50 [2]: 65 nM

SMILES: O=C(/C=C/c1cccc(S(=O)(=O)N2CCN(c3ccccn3)CC2)c1)NO
ED50 [3]: 581 nM

SMILES: O=C(/C=C/c1cccc(S(=O)(=O)N2CCN(c3ncccn3)CC2)c1)NO
Activity (Trypanosoma brucei): Active

Other lines, results leading:

ED50 [1]: 145 nM
SMILES: COc1ccccc1N1CCN(S(=O)(=O)c2cccc(/C=C/C(=O)NO)c2)CC1

ED50 [4]: 105 nM
SMILES: COc1ccc(NS(=O)(=O)c2cccc(/C=C/C(=O)NO)c2)cc1

ED50 [5]: 97 nM
SMILES: O=C(/C=C/c1nc2ccccc2o1)NO

ED50 [1]: 1180 nM
SMILES: COc1ccc(N2CCN(S(=O)(=O)c3cccc(/C=C/C(=O)NO)c3)CC2)cc1
